From publication PMC8699473, “An Easily Expandable Multi-Drug LC-MS Assay for the Simultaneous Quantification of 57 Oral Antitumor Drugs in Human Plasma” (Cancers, 2021)
Read-outs that look alike come from different tables or passages of the source.

Experiments:
[1] = Freeze-thaw stability in spiked pooled human plasma; format: physicochemical
[2] = set-up: method as in supplement references [1-55] as printed per drug; conditions: minimum steady-state blood plasma concentration after multiple dose administration; ref supplement references [1-55] per drug; cited from earlier work

SMILES	Freeze-Thaw Accuracy [%] ([1]; validation standard 2xLLOV)	Freeze-Thaw Accuracy [%] ([1]; validation standard LLOV)	Freeze-Thaw Accuracy [%] ([1]; validation standard MOV)	Freeze-Thaw Accuracy [%] ([1]; validation standard ULOV)	cmin [2] [ng/mL]	Freeze-Thaw Accuracy [%] [1] [%]
Cc1cn(-c2cc(NC(=O)c3ccc(C)c(Nc4nccc(-c5cccnc5)n4)c3)cc(C(F)(F)F)c2)cn1 [Nilotinib]	98.5	92.8	100.9	96.0	1165	–
COC(=O)c1ccc2c(c1)NC(=O)/C2=C(\Nc1ccc(N(C)C(=O)CN2CCN(C)CC2)cc1)c1ccccc1 [Nintedanib]	103.0	93.2	96.9	95.8	13.1	–
NC(=O)c1cccc2cn(-c3ccc([C@@H]4CCCNC4)cc3)nc12 [Niraparib]	96.8	98.0	96.5	97.1	649	–
Cc1[nH]c2ccccc2c1CCNCc1ccc(/C=C/C(=O)NO)cc1 [Panobinostat]	107.5	104.3	98.8	102.3	–	–
Nc1cccc2c1C(=O)N(C1CCC(=O)NC1=O)C2=O (stereo not shown) [Pomalidomide]	90.9	74.4	90.1	92.4	10.9	–
Cc1ccc(C(=O)Nc2ccc(CN3CCN(C)CC3)c(C(F)(F)F)c2)cc1C#Cc1cnc2cccnn12 [Ponatinib]	101.8	–	99.3	100.2	34	101.5
CN(C)C(=O)c1cc2cnc(Nc3ccc(N4CCNCC4)cn3)nc2n1C1CCCC1 [Ribociclib]	103.9	86.3	–	92.4	732	–
CNCc1ccc(-c2[nH]c3cc(F)cc4c3c2CCNC4=O)cc1 [Rucaparib]	93.7	104.4	97.8	95.5	1754	–
N#CC[C@H](C1CCCC1)n1cc(-c2ncnc3[nH]ccc23)cn1 [Ruxolitinib]	94.7	92.5	96.2	97.2	11.4	–
Cc1c(C(=O)Nc2ccc(N3C[C@@H](C)O[C@@H](C)C3)nc2)cccc1-c1ccc(OC(F)(F)F)cc1 [Sonidegib]	97.9	103.7	96.5	99.0	890	–
CNC(=O)c1cc(Oc2ccc(NC(=O)Nc3ccc(Cl)c(C(F)(F)F)c3)cc2)ccn1 [Sorafenib]	97.6	103.3	96.9	98.7	3750	–
CCN(CC)CCNC(=O)c1c(C)[nH]c(/C=C2\C(=O)Nc3ccc(F)cc32)c1C [Sunitinib]	102.8	117.0	99.1	100.3	51.6	–
O=C1CCC(N2C(=O)c3ccccc3C2=O)C(=O)N1 (stereo not shown) [Thalidomide]	78.3	83.3	74.7	72.8	600	–
CC(=O)Nc1cccc(-n2c(=O)n(C3CC3)c(=O)c3c(Nc4ccc(I)cc4F)n(C)c(=O)c(C)c32)c1 [Trametinib]	97.6	93.8	102.5	97.0	12.1	–
O=c1[nH]c(=O)n([C@H]2C[C@H](O)[C@@H](CO)O2)cc1C(F)(F)F [Trifluridine]	101.6	80.9	94.4	91.6	–	–
CCCS(=O)(=O)Nc1ccc(F)c(C(=O)c2c[nH]c3ncc(-c4ccc(Cl)cc4)cc23)c1F [Vemurafenib]	98.2	101.9	97.5	99.2	39000	–
CC1(C)CCC(CN2CCN(c3ccc(C(=O)NS(=O)(=O)c4ccc(NCC5CCOCC5)c([N+](=O)[O-])c4)c(Oc4cnc5[nH]ccc5c4)c3)CC2)=C(c2ccc(Cl)cc2)C1 [Venetoclax]	102.4	105.4	97.8	101.9	520	–
